Several values for one entry are separate records, joined by “and”; a condition that tells them apart may be missing. Identical values can stand only once. After the bases stand the sugars from the 5' end (letter, count) and the backbone: PS all phosphorothioate, else s phosphorothioate and o phosphodiester by linkage. Methylation of C is not given here. k = constrained ethyl (cEt); d = 2'-deoxy (DNA)
Key:
MALAT1 = conditions: ASO, A431, 0.005 µM
IRF4 = conditions: ASO

Sequence | target mRNA inhibition (MALAT1) | also measured
CTGTAAACCTGTGGTG (sugars k3 d10 k3, PS) | 15% | –
CAGATGCAAGTTAAAC (sugars k3 d10 k3, PS) | 40% | –
ATGAGTATAAGCCTGA (sugars k3 d10 k3, PS) | 55% | –
AGAAGAATCCCCCCCA (sugars k3 d10 k3, PS) | -13% | –
CCTTCGGATGCTTCAC (sugars k3 d10 k3, PS) | 58% and 78% | –
TCTGTTACACCTTGAG (sugars k3 d10 k3, PS) | 48% and 64% | –
AAACAACATATTGCCG (sugars k3 d10 k3, PS) | 20% | –
CCACTTGATCCCAACT (sugars k3 d10 k3, PS) | 47% | –
TCACAAATACGACTGC (sugars k3 d10 k3, PS) | 23% | –
TATGAGCTTCAGACCT (sugars k3 d10 k3, PS) | -9% | –
CTGAAATCCCCTAGGG (sugars k3 d10 k3, PS) | 30% | –
GCATAAAGCTGAAATC (sugars k3 d10 k3, PS) | 4% | –
CTGATTTTAAGGTTGC (sugars k3 d10 k3, PS) | 80% and 86% | –
CGCAGACAAAGTTTCT (sugars k3 d10 k3, PS) | 57% | –
CCCACAGGAACAAGTC (sugars k3 d10 k3, PS) | 14% | –
AAGGCAAATCGCCATG (sugars k3 d10 k3, PS) | 14% | –
CGTTAAAAACTTAACG (sugars k3 d10 k3, PS) | 13% | –
ACGCCAACACAGTTTG (sugars k3 d10 k3, PS) | 48% | –
AGGATTCTAGACAGAC (sugars k3 d10 k3, PS) | 72% and 71% | –

Sequence | target mRNA inhibition (MALAT1) | also measured
ACCCCAACTAAACATA (sugars k3 d10 k3, PS) | 26% | –
CAGCTCGGGCGAGGCG (sugars k3 d10 k3, PS) | 13% | –
GCCTTTATCACTCAGC (sugars k3 d10 k3, PS) | 29% | –
TAAATTGGTAGCTTTC (sugars k3 d10 k3, PS) | 74% and 80% | –
TCCTGAAATCCCCTAG (sugars k3 d10 k3, PS) | -12% | –
TACTTGCCAACTTGGA (sugars k3 d10 k3, PS) | 51% | –
TTATCCTGATATTGGA (sugars k3 d10 k3, PS) | -12% | –
TCTCAACCTCCGTCAT (sugars k3 d10 k3, PS) | 27% | –
CACCAAAGACCTCGAC (sugars k3 d10 k3, PS) | 18% | –
ACAGCTTATGGAACTT (sugars k3 d10 k3, PS) | 27% | –
TTCGGCTTCTTTTATT (sugars k3 d10 k3, PS) | 44% | –
GCCATCTACTATTTCT (sugars k3 d10 k3, PS) | 38% | –
ATTACGCAACTGAGCC (sugars k3 d10 k3, PS) | 16% | –
GTTACTCCAGCATAAA (sugars k3 d10 k3, PS) | 0% | –
GCGCCGGGCTTCTGCG (sugars k3 d10 k3, PS) | 29% | –
GCCGTTGGCTGCCAGT (sugars k3 d10 k3, PS) | -8% | –
CACAAGGATCCAAGCT (sugars k3 d10 k3, PS) | 18% | –
GAAACCTGGGCTCCCG (sugars k3 d10 k3, PS) | 13% | –
ACCAAAGACCTCGACA (sugars k3 d10 k3, PS) | 14% | –

Sequence | target mRNA inhibition (MALAT1) | also measured
TGCGGCCCCCCAGTTG (sugars k3 d10 k3, PS) | -6% | –
CTGTGTTATGCCTGGT (sugars k3 d10 k3, PS) | -3% | –
TTAAGTTGGTAATTAC (sugars k3 d10 k3, PS) | -6% | –
AAGAACTAGTGGTTCC (sugars k3 d10 k3, PS) | 30% | –
CAATGCACTAAAGATC (sugars k3 d10 k3, PS) | 10% | –
AACACCCGGAAATCGG (sugars k3 d10 k3, PS) | 26% | –
CTTGAGATTTGGGCTT (sugars k3 d10 k3, PS) | 12% and 2% | –
TTCTAATAGCAGCGGG (sugars k3 d10 k3, PS) | 59% and 40% | –
GTGTGATAGTTCAGGG (sugars k3 d10 k3, PS) | 8% | –
CTGGAAAAGCTAGGGA (sugars k3 d10 k3, PS) | -13% | –
TGGCATCAAGGCACTG (sugars k3 d10 k3, PS) | 49% | –
CTTTAAGTTCTCTGGC (sugars k3 d10 k3, PS) | 64% and 82% | –
GCACGGGCTGTCTGCT (sugars k3 d10 k3, PS) | -12% | –
CAGTTACACATCCAAA (sugars k3 d10 k3, PS) | 45% | –
CTACAAAGAGCACTGC (sugars k3 d10 k3, PS) | – | target mRNA inhibition (IRF4; SK-MEL-28, 4 µM): 53%
ACCTGCATCGAGATCA (sugars k3 d10 k3, PS) | – | target mRNA inhibition (IRF4; SK-MEL-28, 4 µM): 53%
GCATGAGGGTGACACA (sugars k3 d10 k3, PS) | – | target mRNA inhibition (IRF4; SK-MEL-28, 4 µM): 42%
GAGGACCACGCCCCTC (sugars k3 d10 k3, PS) | – | target mRNA inhibition (IRF4; SK-MEL-28, 4 µM): -3%
CTTTATAGTAGGTAAG (sugars k3 d10 k3, PS) | – | target mRNA inhibition (IRF4; MM.1R, 1 µM): -1%

From the OligoGym collection
